Measured values from publication PMC11942905, “Identification of a Selective Inhibitor of Human NFS1, a Cysteine Desulfurase Involved in Fe-S Cluster Assembly, via Structure-Based Virtual Screening” (International Journal of Molecular Sciences, 2025).

Columns and labels:
NFS1 H156A = biological target: T1, NFS1 H156A (Homo sapiens, UniProt Q9Y697, H156A); assay: H2S-producing assay, NFS1 H156A mutant; format: biochemical
T1 construct: His tag (N); made in house; host or cells: E. coli BL21(DE3)
Protocol: (§1) To further validate the accuracy of the simulated results, the residues Cys158, Glu387, Lys157, and His156 were mutated to alanine using site-directed mutagenesis.
(§2) For the expression and purification of NFS1Δ1-55/ISD11 in E. coli, the plasmid pNFS1-ISD11 was transformed into BL21(DE3) cells. The cells were grown at 37 °C in 1 L cultures of LB medium containing chloramphenicol (50 μg/ml) until the optical density at 600 nm (OD600) reached 0.6–0.8. Protein expression was induced by adding 0.1 mM isopropyl β-D-1-thiogalactopyranoside (IPTG), followed by an additional 12 h of incubation at 25 °C. The cells were harvested by centrifugation at 8000 rpm for 10 min at 4 °C, then resuspended in lysis buffer containing 50 mM phosphate-buffered saline (PBS, pH 7.4), 500 mM NaCl, 100 mg/L lysozyme, 30 mM imidazole, and 1 mM phenylmethanesulfonyl fluoride (PMSF). The resuspended cells were incubated on ice for 1 h, followed by sonication using an Ultrasonic Cell Disruption System (Scientz, Ningbo, China). The supernatant was obtained by centrifugation at 12,000 rpm for 30 min at 4 °C and was loaded onto a HisTrap FF column (GE Healthcare, Chicago, MA, USA) pre-equilibrated with lysis buffer. […] The protein concentration was measured using a BCA protein assay reagent kit (TransGen Biotech, Beijing, China).

NFS1 K157A = biological target: T2, NFS1 K157A (Homo sapiens, UniProt Q9Y697, K157A); assay: H2S-producing assay, NFS1 K157A mutant; format: biochemical
T2 construct: His tag (N); made in house; host or cells: E. coli BL21(DE3)
Protocol: as §1, §2

A549 cells = assay: CCK-8 cell viability assay, A549; format: cell-based, human
Protocol: Human bronchial epithelial cells (BEAS-2B) and human lung adenocarcinoma A549 cells were purchased from the Institute of Biochemistry and Cell Biology, Chinese Academy of Sciences (Shanghai, China). BEAS-2B and A549 cells were cultured in DMEM supplemented with 10% (v/v) fetal bovine serum and 1% (v/v) penicillin–streptomycin solution at 37 °C in a humidified atmosphere containing 5% CO2. The half-maximal inhibitory concentration (IC50) values of the selected compounds against BEAS-2B and A549 cells were determined using the CCK-8 assay. Briefly, the cells were seeded into 96-well culture plates at a density of 5 × 10^3 cells per well. After 12 h of culture, fresh medium containing varying concentrations of the selected compounds dissolved in DMSO was added for an additional 72-hour incubation. Subsequently, 10 μL of CCK-8 solution was added to each well, followed by a further 1.5-h incubation at 37 °C. The optical density at 450 nm (OD450) for each well was measured using a microplate reader. Medium containing DMSO alone was used as the control group. Cell viability was calculated as the percentage of the OD450 of the experimental group compared to that of the control group, which was set at 100%.

aconitase (ACO) = assay: Aconitase activity in A549 cells; format: cell-based, human; settings: 50 µM
Protocol: The activity of succinate dehydrogenase (SDH) in cells was determined using an SDH activity assay kit (Solarbio, Beijing, China) according to the manufacturer’s instructions. The optical density at 600 nm (OD600) was measured using a multifunctional microplate reader in 96-well plates. One unit of SDH activity was defined as the amount of enzyme catalyzing the consumption of 1 nmol of 2,6-dichlorophenol indophenol per minute at 37 °C [43]. The activity of aconitase (ACO) was measured as previously described, with some modifications. The cells were washed three times with pre-cooled PBS and lysed with lysis buffer containing 50 mM of Tris-HCl (pH 8.0), 0.2% Triton X-100, 0.6 mM of MnCl2, 5 mM of citrate, and 1 mM of PMSF. The aconitase activity was measured by monitoring the formation of cis-aconitate from isocitrate at 240 nm in 50 mM of Tris-HCl (pH 8.0) containing 20 mM of DL-trisodium isocitrate at 37 °C. An extinction coefficient of 3600 M^−1 cm^−1 at 240 nm was used to calculate the cis-aconitate concentration. One unit of ACO activity was defined as the amount of enzyme catalyzing the generation of 1 nmol of cis-aconitate per minute at 37 °C.

T2 sequence (Q9Y697 56-457 K157A): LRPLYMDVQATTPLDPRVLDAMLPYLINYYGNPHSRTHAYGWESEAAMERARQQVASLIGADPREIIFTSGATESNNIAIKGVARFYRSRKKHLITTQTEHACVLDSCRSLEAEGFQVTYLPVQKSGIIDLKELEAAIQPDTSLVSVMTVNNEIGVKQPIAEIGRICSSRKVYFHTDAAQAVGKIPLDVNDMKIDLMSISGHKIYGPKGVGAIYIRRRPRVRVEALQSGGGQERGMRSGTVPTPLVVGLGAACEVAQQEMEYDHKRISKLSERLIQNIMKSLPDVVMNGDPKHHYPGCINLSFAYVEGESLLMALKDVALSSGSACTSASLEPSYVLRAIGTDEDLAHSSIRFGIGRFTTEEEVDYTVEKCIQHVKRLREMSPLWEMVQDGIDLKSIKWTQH
T1 sequence (Q9Y697 56-457 H156A): as the sequence (Q9Y697 56-457 K157A) above, with H101A, A102K counted along it

Question: With COc1cc(/C=N/NC(=O)COc2ccc(Cl)cc2Cl)ccc1O [Compound 53] as the compound, how does the IC50 (NFS1 H156A) read?
Answer: Its IC50 is 97.3 ± 1.39 µM.

Question: What about the IC50 (NFS1 K157A) of the same compound?
Answer: Its IC50 is 53.2 ± 6.44 µM.

Question: And the “anti-proliferative activity in the presence of Erastin” value (A549 cells; A549 cells, Compound 53 50 µM with 2.5 µM Erastin, versus without)?
Answer: The value was “increased remarkably”.

Question: And the IC50 (A549 cells; Homo sapiens, A549, CCK-8, 72 h)?
Answer: Its IC50 is 16.3 ± 1.92 µM.

Question: What about the “ACO activity compared to the control group” value (aconitase (ACO)) of the same compound?
Answer: Its value is 51.3%.
